# Source: patent US20080188502A1, “New Compounds I” (AstraZeneca AB, priority 2006, published 2008)
# Where a name gives a salt, the structure may show the parent alone.
# Molecular target: T1, recombinant human GSK3β (Homo sapiens, UniProt P49841)
# T1 construct: purchased Dundee University, UK
# Assay: GSK3β Scintillation Proximity Assay (ATP competition)
# Format: biochemical
# Details: inhibition constants calculated with Km of ATP for GSK3β of 20 μM; 1 μM ATP, 1 μM biotinylated peptide substrate
# Description: Determination of ATP Competition in Scintillation Proximity GSK3β Assay.
# GSK3β Scintillation Proximity Assay.
# The competition experiments were carried out in duplicate with 10 different concentrations of the inhibitors in clear-bottom microtiter plates (Wallac, Finland). A biotinylated peptide substrate, Biotin-Ala-Ala-Glu-Glu-Leu-Asp-Ser-Arg-Ala-Gly-Ser(PO3H2)-Pro-Gln-Leu (AstraZeneca, Lund), was added at a final concentration of 1 μM in an assay buffer containing 1 mU recombinant human GSK3β (Dundee University, UK), 12 mM morpholinepropanesulfonic acid (MOPS), pH 7.0, 0.3 mM EDTA, 0.01% β-mercaptoethanol, 0.004% Brij 35 (a […] detergent), 0.5% glycerol and 0.5 μg BSA/25 μl. The reaction was initiated by the addition of 0.04 μCi [γ-^33P]ATP (Amersham, UK) and unlabelled ATP at a final concentration of 1 μM and assay volume of 25 μl. After incubation for 20 minutes at room temperature, each reaction was terminated by the addition of 25 μl stop solution containing 5 mM EDTA, 50 μM ATP, 0.1% Triton X-100 and 0.25 mg streptavidin coated Scintillation Proximity Assay (SPA) beads (Amersham, UK). After 6 hours the radioactivity was determined in a liquid scintillation counter (1450 MicroBeta Trilux, Wallac). The inhibition curves were analysed by non-linear regression using GraphPad Prism, USA. The Km value of ATP for GSK3β, used to calculate the inhibition constants (Ki) of the various compounds, was 20 μM.
# T1 sequence (P49841 whole entry): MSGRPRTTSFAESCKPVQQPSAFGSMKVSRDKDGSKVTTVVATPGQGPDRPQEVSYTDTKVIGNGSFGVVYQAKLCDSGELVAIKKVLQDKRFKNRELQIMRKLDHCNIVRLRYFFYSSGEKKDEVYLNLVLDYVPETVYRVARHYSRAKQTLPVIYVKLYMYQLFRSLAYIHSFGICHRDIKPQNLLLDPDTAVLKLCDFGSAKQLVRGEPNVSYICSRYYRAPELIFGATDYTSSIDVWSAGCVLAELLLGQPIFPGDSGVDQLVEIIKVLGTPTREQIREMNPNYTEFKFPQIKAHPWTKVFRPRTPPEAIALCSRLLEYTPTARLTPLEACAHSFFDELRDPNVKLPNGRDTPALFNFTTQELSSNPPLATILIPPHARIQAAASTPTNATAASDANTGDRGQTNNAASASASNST
row,Ki [nM],SMILES
1,19,"Cc1ncc(-c2nc(Nc3ccc(C(=O)N4CCN(Cc5ccccc5)CC4)nc3)ncc2F)n1C1CCOCC1 [Example 28, (4-Benzylpiperazin-1-yl)-[5-[[5-fluoro-4-[2-methyl-3-(oxan-4-yl)imidazol-4-yl]pyrimidin-2-yl]amino]pyridin-2-yl]methanone]"
2,34,"Cc1ncc(-c2nc(Nc3ccc(C(=O)N4CCC(F)(F)CC4)nc3)ncc2F)n1C1CCOCC1 [Example 29, (4,4-Difluoro-1-piperidyl)-[5-[[5-fluoro-4-[2-methyl-3-(oxan-4-yl)imidazol-4-yl]pyrimidin-2-yl]amino]pyridin-2-yl]methanone]"
3,17,"Cc1ncc(-c2nc(Nc3ccc(C(=O)N(Cc4ccccc4)C(C)C)nc3)ncc2F)n1C1CCOCC1 [Example 30, N-Benzyl-5-[[5-fluoro-4-[2-methyl-3-(oxan-4-yl)imidazol-4-yl]pyrimidin-2-yl]amino]-N-propan-2-yl-pyridine-2-carboxamide]"
4,12,"Cc1ncc(-c2nc(Nc3ccc(C(=O)N(C)CC(C)C)nc3)ncc2F)n1C1CCOCC1 [Example 31, 5-[[5-Fluoro-4-[2-methyl-3-(oxan-4-yl)imidazol-4-yl]pyrimidin-2-yl]amino]-N-methyl-N-(2-methylpropyl)pyridine-2-carboxamide]"
5,33,"Cc1ncc(-c2nc(Nc3ccc(C(=O)N4CCC(F)CC4)nc3)ncc2F)n1C1CCOCC1 [Example 32, [5-[[5-Fluoro-4-[2-methyl-3-(oxan-4-yl)imidazol-4-yl]pyrimidin-2-yl]amino]pyridin-2-yl]-(4-fluoro-1-piperidyl)methanone]"
6,16,"CCN(Cc1ccccc1)C(=O)c1ccc(Nc2ncc(F)c(-c3cnc(C)n3C3CCOCC3)n2)cn1 [Example 33, N-Benzyl-N-ethyl-5-[[5-fluoro-4-[2-methyl-3-(oxan-4-yl)imidazol-4-yl]pyrimidin-2-yl]amino]pyridine-2-carboxamide]"
7,85,"CCC(C)N1CCN(C(=O)c2ccc(Nc3ncc(F)c(-c4cnc(C)n4C4CCOCC4)n3)cn2)CC1 (centres unmarked) [Example 34, (4-Butan-2-ylpiperazin-1-yl)-[5-[[5-fluoro-4-[2-methyl-3-(oxan-4-yl)imidazol-4-yl]pyrimidin-2-yl]amino]pyridin-2-yl]methanone]"
8,20,CCCN(CC1CC1)C(=O)c1ccc(Nc2ncc(F)c(-c3cnc(C)n3C3CCOCC3)n2)cn1 [Example 35]
9,10,"Cc1ncc(-c2nc(Nc3ccc(C(=O)N4CCN(c5ccc(F)cc5)CC4)nc3)ncc2F)n1C1CCOCC1 [Example 36, [5-[[5-Fluoro-4-[2-methyl-3-(oxan-4-yl)imidazol-4-yl]pyrimidin-2-yl]amino]pyridin-2-yl]-[4-(4-fluorophenyl)piperazin-1-yl]methanone]"
10,56,"CCCN1CCN(C(=O)c2ccc(Nc3ncc(F)c(-c4cnc(C)n4C4CCOCC4)n3)cn2)CC1 [Example 37, [5-[[5-Fluoro-4-[2-methyl-3-(oxan-4-yl)imidazol-4-yl]pyrimidin-2-yl]amino]pyridin-2-yl]-(4-propylpiperazin-1-yl)methanone]"
11,29,"CCN(CC)C(=O)c1ccc(Nc2ncc(F)c(-c3cnc(C)n3C3CCOCC3)n2)cn1 [Example 38, N,N-Diethyl-5-[[5-fluoro-4-[2-methyl-3-(oxan-4-yl)imidazol-4-yl]pyrimidin-2-yl]amino]pyridine-2-carboxamide]"
12,160,"Cc1ncc(-c2nc(Nc3ccc(C(=O)NCC(C)(C)CN(C)C)nc3)ncc2F)n1C1CCOCC1 [Example 39, N-(3-Dimethylamino-2,2-dimethyl-propyl)-5-[[5-fluoro-4-[2-methyl-3-(oxan-4-yl)imidazol-4-yl]pyrimidin-2-yl]amino]pyridine-2-carboxamide]"
13,16,"Cc1ncc(-c2nc(Nc3ccc(C(=O)N4CC(C)CC(C)C4)nc3)ncc2F)n1C1CCOCC1 (centres unmarked) [Example 40, (3,5-Dimethyl-1-piperidyl)-[5-[[5-fluoro-4-[2-methyl-3-(oxan-4-yl)imidazol-4-yl]pyrimidin-2-yl]amino]pyridin-2-yl]methanone]"
14,11,"Cc1ncc(-c2nc(Nc3cnc(C(=O)N4CCC4)c(Cl)c3)ncc2F)n1C1CCOCC1 [Example 42, Azetidin-1-yl-[3-chloro-5-[[5-fluoro-4-[2-methyl-3-(oxan-4-yl)imidazol-4-yl]pyrimidin-2-yl]amino]pyridin-2-yl]methanone]"
15,23,"CN1CCN(C(=O)c2ncc(Nc3ncc(F)c(-c4cnc(C(F)(F)F)n4C4CCOCC4)n3)cc2Cl)CC1 [Example 43, [3-Chloro-5-[[5-fluoro-4-[3-(oxan-4-yl)-2-(trifluoromethyl)imidazol-4-yl]pyrimidin-2-yl]amino]pyridin-2-yl]-(4-methylpiperazin-1-yl)methanone]"
16,55,"CN1CCN(C(=O)c2ncc(Nc3ncc(F)c(-c4cnc(C(F)(F)F)n4C)n3)cc2Cl)CC1 [Example 44, [3-Chloro-5-[[5-fluoro-4-[3-methyl-2-(trifluoromethyl)imidazol-4-yl]pyrimidin-2-yl]amino]pyridin-2-yl]-(4-methylpiperazin-1-yl)methanone]"
17,32,"Cn1c(-c2nc(Nc3cnc(C(=O)N4CCC4)c(Cl)c3)ncc2F)cnc1C(F)(F)F [Example 45, Azetidin-1-yl-[3-chloro-5-[[5-fluoro-4-[3-methyl-2-(trifluoromethyl)imidazol-4-yl]pyrimidin-2-yl]amino]pyridin-2-yl]methanone hydrochloride]"
18,39,"Cc1ncc(-c2nc(Nc3ccc(C(=O)N4CCC4)nc3)ncc2F)n1C [Example 46, N-[6-(Azetidin-1-ylcarbonyl)pyridin-3-yl]-4-(1,2-dimethyl-1H-imidazol-5-yl)-5-fluoropyrimidin-2-amine]"
19,100,"Cc1ncc(-c2nc(Nc3ccc(C(=O)N4CCN(C)CC4)nc3)ncc2F)n1C [Example 47, 4-(1,2-Dimethyl-1H-imidazol-5-yl)-5-fluoro-N-{6-[(4-methylpiperazin-1-yl)carbonyl]pyridin-3-yl}pyrimidin-2-amine]"
20,16,"Cc1ncc(-c2nc(Nc3cnc(C(=O)N4CCC4)c(Cl)c3)ncc2F)n1C [Example 48, N-[6-(Azetidin-1-ylcarbonyl)-5-chloropyridin-3-yl]-4-(1,2-dimethyl-1H-imidazol-5-yl)-5-fluoropyrimidin-2-amine]"
21,19,"Cc1ncc(-c2nc(Nc3cnc(C(=O)N4CCN(C)CC4)c(Cl)c3)ncc2F)n1C [Example 49, N-[5-Chloro-6-[(4-methylpiperazin-1-yl)carbonyl]pyridin-3-yl]-4-(1,2-dimethyl-1H-imidazol-5-yl)-5-fluoropyrimidin-2-amine]"
22,33,"Cc1ncc(-c2nc(Nc3ccc(S(=O)(=O)C(C)C)nc3)ncc2F)n1C1CCOCC1 [Example 50, {5-Fluoro-4-[2-methyl-3-(tetrahydro-pyran-4-yl)-3H-imidazol-4-yl]-pyrimidin-2-yl}-[6-(propan-2-ylsulfonyl)-pyridin-3-yl]-amine]"
23,21,"CCS(=O)(=O)c1ccc(Nc2ncc(F)c(-c3cnc(C)n3C3CCOCC3)n2)cn1 [Example 51, (6-Ethanesulfonyl-pyridin-3-yl)-{5-fluoro-4-[2-methyl-3-(tetrahydro-pyran-4-yl)-3H-imidazol-4-yl]-pyrimidin-2-yl}-amine]"
24,39,Cc1ncc(-c2nc(Nc3ccc(S(=O)(=O)NCC(F)(F)F)nc3)ncc2F)n1C1CCOCC1 [Example 52]
25,20,Cc1ncc(-c2nc(Nc3ccc(S(=O)(=O)N(C)C)nc3)ncc2F)n1C1CCOCC1 [Example 53]
26,7,"Cc1ncc(-c2nc(Nc3cnc(C(=O)N4CCCCC4)c(Cl)c3)ncc2F)n1C1CCOCC1 [Example 54, N-[5-Chloro-6-(piperidin-1-ylcarbonyl)pyridin-3-yl]-5-fluoro-4-[2-methyl-1-(tetrahydro-2H-pyran-4-yl)-1H-imidazol-5-yl]pyrimidin-2-amine hydrocholoride, hydrochloride]"
27,18,"Cc1ncc(-c2nc(Nc3cnc(C(=O)N4CCCCC4)c(Cl)c3)ncc2F)n1C [Example 55, N-[5-Chloro-6-(piperidin-1-ylcarbonyl)pyridin-3-yl]-4-(1,2-dimethyl-1H-imidazol-5-yl)-5-fluoropyrimidin-2-amine hydrochloride]"
28,55,"Cn1c(-c2nc(Nc3cnc(C(=O)N4CCCCC4)c(Cl)c3)ncc2F)cnc1C(F)(F)F [Example 56, N-[5-Chloro-6-(piperidin-1-ylcarbonyl)pyridin-3-yl]-5-fluoro-4-[1-methyl-2-(trifluoromethyl)-1H-imidazol-5-yl]pyrimidin-2-amine hydrochloride]"
29,19,"O=C(c1ncc(Nc2ncc(F)c(-c3cnc(C(F)(F)F)n3C3CCOCC3)n2)cc1Cl)N1CCCCC1 [Example 57, N-[5-Chloro-6-(piperidin-1-ylcarbonyl)pyridin-3-yl]-5-fluoro-4-[1-(tetrahydro-2H-pyran-4-yl)-2-(trifluoromethyl)-1H-imidazol-5-yl]pyrimidin-2-amine hydrochloride]"
